We go through 61 compounds from patent US20250154145A1, “OXER1 ANTAGONISTS AND USES THEREOF” (Fairhaven Pharmaceuticals Ins., priority 2021, published 2025).

This test deals with neutrophils. Put plainly: Neutrophil calcium flux assay (5-OXO-ETE-stimulated, Indo-1 fluorescence). The note with it: 5-OXO-ETE-stimulated calcium flux. It counts as cell-based. Here is the method:
After isolation, neutrophils were resuspended in PBS without calcium and Magnesium (PBS −/−) at a concentration of 5×10^6 cells/ml. 2ul of Indo-1 (1 mM) were added per ml of cells. After incubation at 37° C. for 30 minutes, cells were washed twice in PBS −/− and resuspended at 5×10^6 cells/ml in assay buffer (HBSS 1× with calcium and magnesium and […]). In a 96-well Black optical clear bottom plate 100 μL of neutrophil were dispensed to each well. After incubation at 37° C. for 5 minutes, 50 μL of assay buffer or 3× antagonist were added and incubated for 5 min in a Tecan Spark plate reader (Tecan, Morrisville, NC). Baseline was measured for 30 sec (wavelength setup: excitation: 331 nm and emission:410 nm). When baseline is stable, 50p of 5-OXO-ETE at 200 nM (4×) or HBSS was added to appropriate wells. Fluorescence was measured every 5 seconds for 30 cycles. Results are expressed as Net fluorescence (FLU minus Background and injection peak). All data were analyzed using GraphPad Prism version 9 for Windows (GraphPad, San Diego, CA).
(A change in cytosolic calcium serves as a functional read-out for many receptors and channels.)

What is called IC50 is the midpoint of a concentration-inhibition curve. As to `Cn1c(CCCCCCc2cccc(Cl)c2)c(C(=O)N2CC[C@H](c3nnn[nH]3)C2)c2cc(C#N)cnc21` [Compound I-223], where the note is “Neutrophil”, the IC50 was less than 100 nM.
Same read-out and setting: under `CC(CC(=O)O)CC(=O)c1c(CCCCCC(O)c2ccc(Cl)cc2)n(C)c2ncc(C#N)cc12` (stereo not shown) [Compound I-310] stands 100 to 300 nM; under `C[C@H](OCCCCc1c(C(=O)N2CC[C@H](C(=O)O)C2)c2cc(C#N)cnc2n1C)c1ccccc1` [Compound I-453], more than 300 nM; under `CC(CC(=O)O)CC(=O)c1c(CCCCCCc2cccc(Cl)c2)n(C)c2ccc(C(F)(F)F)cc12` (stereo not shown) [Compound I-58], less than 100 nM.
In the case of `CC[C@@H](CC(=O)O)CC(=O)c1c(CCCCOCc2ccccc2)n(C)c2ncc(C#N)cc12` [Compound I-439], where the note is “Neutrophil”, the IC50 is more than 300 nM.
On the same count and under the same terms, with `Cn1c(CCCCOCc2ccccc2)c(C(=O)N2CC[C@H](C(=O)O)C2)c2cc(C#N)cnc21` [Compound I-178] the figure was more than 300 nM; with `Cn1c(CCCCCCc2cccc(Cl)c2)c(C(=O)N2CC(C(=O)O)C2)c2cc(Cl)ccc21` [Compound I-151], 100 to 300 nM.
On the same count and under the same terms, under `CC(CC(=O)O)CC(=O)c1c(CCCCCCC#CC2CC(F)(F)C2)n(C)c2ncc(C#N)cc12` (stereo not shown) [Compound I-322] stands less than 100 nM; under `C[C@H](CC(=O)O)CC(=O)c1c(CCCCOCc2cccc(Cl)c2)n(C)c2cnc(Cl)cc12` [Compound I-410], less than 100 nM.
The same measure, in the same setting: with `Cn1c(CCCCCCC#CC2CC(F)(F)C2)c(C(=O)N2CC[C@H](C(=O)O)C2)c2cc(C#N)cnc21` [Compound I-340] the figure was less than 100 nM; with `COc1cccc(C(O)CCCCCc2c(C(=O)CC(C)CC(=O)O)c3cc(C#N)cnc3n2C)c1` (stereo not shown) [Compound I-302], less than 100 nM; with `CC(CC(=O)O)CC(=O)c1c(CCCCOCc2cccc(Cl)c2)n(CCO)c2ncc(Cl)cc12` (stereo not shown) [Compound I-378], more than 300 nM.
`C[C@H](CC(=O)O)CC(=O)c1c(CCCCCOc2ccccn2)n(C)c2ccc(Cl)cc12` [Compound I-131]: the IC50 (Neutrophil) was more than 300 nM.
Regarding `C[C@H](CC(=O)O)CC(=O)c1c(CCCCOCc2cccc(C#N)c2)n(C)c2ccncc12` [Compound I-396], for the setting “Neutrophil”, the IC50 is less than 100 nM.
The same measure, in the same setting: with `CC(CC(=O)O)CC(=O)c1c(CCCC[S+]([O-])Cc2ccccc2)n(C)c2ncc(C#N)cc12` (stereo not shown) [Compound I-427] the figure was more than 300 nM; with `Cn1c(CCCCCCC#CC2CC(F)(F)C2)c(C(=O)N2CC[C@@H](C(=O)O)C2)c2cc(C#N)cnc21` [Compound I-341], more than 300 nM.
On the same count and under the same terms, with `C[C@@H](CC(=O)O)CC(=O)c1c(CCCCO[C@H](C)c2ccccc2)n(C)c2ncc(C#N)cc12` [Compound I-433] the figure was more than 300 nM; with `COC(=O)C[C@@H](C)CC(=O)c1c(CCCCOCc2ccccc2)n(C)c2ncc(C#N)cc12` [Compound I-449], more than 300 nM; with `Cn1c(CCCCCCC#CC2CC(F)(F)C2)c(C(=O)N2CC[C@H](C(=O)NS(C)(=O)=O)C2)c2cc(C#N)cnc21` [Compound I-363], more than 300 nM.
The same measure, in the same setting: with `CC(CC(=O)O)CC(=O)c1c(CCCCCOCc2cccc(Cl)c2)[nH]c2ccc(C#N)cc12` (stereo not shown) [Compound I-443] the figure was 100 to 300 nM; with `C[C@H](CC(=O)O)CC(=O)c1c(CCCCOCc2ccc(F)cc2)n(C)c2ncc(C#N)cc12` [Compound I-249], less than 100 nM.
With `C[C@H](CC(=O)O)CC(=O)c1c(CCCCOCc2cccc(C#N)c2)n(C)c2ncc(Cl)cc12` [Compound I-212], where the note is “Neutrophil”, the IC50 was less than 100 nM.
Take `C[C@H](CC(=O)O)CC(=O)c1c(CCCCOCc2ccccc2)n(C)c2ncccc12` [Compound I-101]: the IC50 (Neutrophil) was more than 300 nM.
Same read-out and setting: with `C[C@H](CC(=O)O)CC(=O)c1c(CCCCCCc2ccccn2)n(C)c2ccc(Cl)cc12` [Compound I-54] the figure was 100 to 300 nM; with `Cn1c(CCCCCCc2cccc(Cl)c2)c(C(=O)N2CC[C@H](C(=O)NS(C)(=O)=O)C2)c2cc(C#N)cnc21` [Compound I-361], more than 300 nM.
Take `C[C@H](CC(=O)O)CC(=O)c1c(CCCCC#Cc2ccccc2)n(C)c2ccc(Cl)cc12` [Compound I-117]: the concentration for half-maximal inhibition (IC50) (Neutrophil) was less than 100 nM.
On the same count and under the same terms, with `Cc1nc2c(cc1C#N)c(C(=O)CC(C)CC(=O)O)c(CCCCOCc1cccc(Cl)c1)n2C` (stereo not shown) [Compound I-381] the figure was more than 300 nM.
Same read-out and setting: under `C[C@H](CC(=O)O)CC(=O)c1c(CCCCCC#CC2CC(F)(F)C2)n(C)c2ccc(Cl)cc12` [Compound I-330] stands more than 300 nM; under `CC(CC(=O)O)CC(=O)c1c(CCCCCC(O)c2ccc(F)c(Cl)c2)n(C)c2ncc(C#N)cc12` (stereo not shown) [Compound I-301], less than 100 nM.
Same read-out and setting: under `C[C@H](CC(=O)O)CC(=O)c1c(CCCCCNc2ccccn2)n(C)c2ccc(Cl)cc12` [Compound I-128] stands more than 300 nM; under `Cn1c(CCCCCCc2cccc(Cl)c2)c(C(=O)N2CC[C@@H](C(=O)O)C2)c2cc(Cl)ccc21` [Compound I-120], 100 to 300 nM.
On to `CC(CC(=O)O)CC(=O)n1c(CCCCCCc2cccc(Cl)c2)cc2ncc(Cl)cc21` (stereo not shown) [Compound I-305], for which the IC50 was less than 100 nM.
Same read-out and setting: with `CC(CC(=O)O)CC(=O)n1c(CCCCCCc2cccc(Cl)c2)cc2ncc(Cl)cc21` (stereo not shown) [Compound I-468] the figure was more than 300 nM.
Turning to `CC(CC(=O)O)CC(=O)c1c(CCCCOCc2cccc(OC(F)(F)F)c2)n(C)c2cnc(Cl)cc12` (stereo not shown) [Compound I-412], under “Neutrophil”, the IC50 was less than 100 nM.
Still for that read-out and setting: with `C[C@H](CC(=O)O)CC(=O)c1c(CCCCCCc2cccc(Cl)c2)[nH]c2ccc(Cl)cc12` [Compound I-144] the figure was less than 100 nM; with `CCCCCCc1cc2ccc(Cl)cc2n1C(=O)C[C@H](C)CC(=O)O` [Compound I-12], more than 300 nM.
The same measure, in the same setting: with `C[C@H](CC(=O)O)CC(=O)c1c(CCCOCCc2cccc(Cl)c2)n(C)c2ccc(Cl)cc12` [Compound I-61] the figure was less than 100 nM.
Turning to `C[C@H](CC(=O)O)CC(=O)c1c(CCCCOCc2cccc(C#N)c2)n(C)c2cnccc12` [Compound I-394], where the note is “Neutrophil”, the IC50 was less than 100 nM.
The same measure, in the same setting: under `C[C@@H](CC(=O)NO)CC(=O)c1c(CCCCCCc2cccc(Cl)c2)n(C)c2ccc(Cl)cc12` [Compound I-18] stands more than 300 nM; under `CCC#CCCCCCCc1c(C(=O)C[C@H](C)CC(=O)O)c2cc(Cl)ccc2n1C` [Compound I-116], less than 100 nM.
The same measure, in the same setting: with `Cn1c(CCCCCCc2cccc(Cl)c2)c(C(=O)N2CC[C@H](C(=O)O)C2)c2cc(Cl)ccc21` [Compound I-118] the figure was less than 100 nM; with `Cn1c(CCCCCCc2cccc(Cl)c2)c(C(=O)N2CC[C@H](c3nnn[nH]3)C2)c2cc(Cl)cnc21` [Compound I-149], less than 100 nM.
On the same count and under the same terms, with `C[C@H](CC(=O)O)CC(=O)c1c(CCCCCCc2cccnc2)n(C)c2ccc(Cl)cc12` [Compound I-53] the figure was less than 100 nM; with `Cn1c(CCCCCCC#CC2CC(F)(F)C2)c(C(=O)N2CC[C@H](c3nnn[nH]3)C2)c2cc(C#N)cnc21` [Compound I-354], less than 100 nM; with `COc1cc(COCCCCc2c(C(=O)CC(C)CC(=O)O)c3cc(Cl)cnc3n2C)ccn1` (stereo not shown) [Compound I-446], more than 300 nM.
As for `C[C@@H](CC(=O)O)CC(=O)c1c(CCCCOCc2ccccc2)n(C)c2ncc(C#N)cc12` [Compound I-106], where the note is “Neutrophil”, the IC50 was more than 300 nM.
With `C[C@H](CC(=O)O)CC(=O)c1c(CCOCCCC#CC2CC(F)(F)C2)n(C)c2ccc(Cl)cc12` [Compound I-326], the IC50 (Neutrophil) was less than 100 nM.
On the same count and under the same terms, under `CC(CC(=O)O)CC(=O)c1c(CCOCCNc2ccc(F)cc2)n(C)c2ccc(Cl)cc12` (stereo not shown) [Compound I-220] stands more than 300 nM; under `CC(CC(=O)O)CC(=O)c1c(CCCCO)n(C)c2ncc(C#N)cc12` (stereo not shown) [Compound I-429], more than 300 nM; under `CC(CC(=O)O)CC(=O)c1c2cc(C#N)cnc2n(C)c1[C@H]1CC[C@H](COCc2cccc(Cl)c2)CC1` (stereo partly shown) [Compound I-401], more than 300 nM.
The same measure, in the same setting: with `Cn1c(CCCCCCC#CC2CC(F)(F)C2)c(C(=O)N2CC[C@H](C(=O)N[C@@H](CCC(N)=O)C(=O)O)C2)c2cc(C#N)cnc21` [Compound I-463] the figure was more than 300 nM; with `Cn1cc(-c2ccccc2Cl)c(C(=O)N2CC[C@H](C(=O)O)C2)c1CCCCOCc1cccc(Cl)c1` [Compound I-166], more than 300 nM.
For the compound `C[C@H](CC(=O)O)CC(=O)c1c(CCCCCCC#CC2CC(F)(F)C2)[nH]c2ccc(Cl)cc12` [Compound I-323], the IC50 (Neutrophil) is less than 100 nM.
On the same count and under the same terms, with `CC(CC(=O)O)CC(=O)c1c(CCCCOCc2cccc(C#N)c2)n(C)c2ncccc12` (stereo not shown) [Compound I-392] the figure was 100 to 300 nM; with `Cn1c(CCCCOCc2cccc(Cl)c2)c(C(=O)N2CC[C@H](C(=O)O)C2)c2cnccc21` [Compound I-442], more than 300 nM.
Still for that read-out and setting: with `CC(CC(=O)O)CC(=O)c1c(CCCCOCc2cccc(C#N)c2)n(C)c2ncc(C(F)(F)F)cc12` (stereo not shown) [Compound I-417] the figure was 100 to 300 nM.
Same read-out and setting: under `CC(CC(=O)O)CC(=O)c1c(CCCCCC(O)c2ccc(F)cc2)n(C)c2ncc(C#N)cc12` (stereo not shown) [Compound I-311] stands more than 300 nM; under `CC(CC(=O)O)CC(=O)c1c(CCCCCCC=C=CC(F)(F)F)n(C)c2ccc(Cl)cc12` (stereo not shown) [Compound I-304], more than 300 nM.
For the compound `C[C@@H](CC(=O)O)CC(=O)c1c(CCCCOCc2cccc(F)c2)n(C)c2ncc(C#N)cc12` [Compound I-294], the IC50 (Neutrophil) is more than 300 nM.
Regarding `C[C@H](CC(=O)O)CC(=O)c1c(CCCCCNc2cccnc2)n(C)c2ncc(Cl)cc12` [Compound I-140], the IC50 (Neutrophil) is more than 300 nM.
Still for that read-out and setting: under `Cn1c(CCCCCC(O)c2cccc(Cl)c2)c(C(=O)N2CC[C@H](C(=O)O)C2)c2cc(Cl)cnc21` (stereo partly shown) [Compound I-173] stands more than 300 nM.
